Measurements as given in publication PMC9586926, “An efflux-susceptible antibiotic-adjuvant with systemic efficacy against mouse infections” (Scientific Reports, 2022).
Where a SMILES comes first, the peptide text is derived from it. [ ]: non-standard residue; d: D form. The star is where a group is joined. 12Ado = NCCCCCCCCCCCC(=O)O; Decanoyl = CCCCCCCCCC(=O)*; Dab = NCC[C@H](N)C(=O)O

Tests used:
P. aeruginosa = experiment: MIC, broth microdilution; type: cell-based, Pseudomonas aeruginosa; settings: broth microdilution in LB, 18–24 h, 37 °C; n = 3 strains
Description: Bacteria used in this study consisted of standard American Type Culture Collection (ATCC; Biological Industries, Beit Haemek, Israel) strains, clinically isolated (CI; Sourasky Medical Center, Tel Aviv, Israel) strains, as well as isogenic mutant strains. Gram-negative bacteria included Acinetobacter baumannii ATCC 19606; Escherichia coli ATCC 25922, 35218, CFT073, CI 14384, 16327, and the isogenic pair Ag100 (wild-type) and its efflux deficient mutant Ag100a (ΔacrAB); Klebsiella pneumoniae CI 1287, 224; Pseudomonas aeruginosa ATCC 27853, CI 1278, 8634; Salmonella enterica serovar Typhimurium ATCC 14028 (wild-type) and its isogenic efflux deficient mutant ΔacrAB. Bacteria were grown in Luria–Bertani broth (LB; 5 g/l NaCl, 5 g/l yeast extract, 10 g/l tryptone; pH = 7.0) at 37 °C with shaking. Over-night cultures were diluted 10-folds into fresh growth-medium and incubated at 37 °C with shaking until reaching mid-logarithmic phase. Then, bacterial concentrations were adjusted using O.D.600 nm measurements, and bacteria were subjected to the experimental procedures listed herein.
(§1) MIC was determined according to the broth microdilution method: antimicrobials were subjected to serial twofold dilutions in LB medium, and incubated with 5 × 10^5 CFU/ml of bacteria (final volume of 200 µl) for 18–24 h at 37 °C. Then, O.D.620 nm was measured (BioTek Instruments Synergy HT; Winooski, VT, USA), and the MIC was defined as the lowest antimicrobial concentration for which no increase in O.D.620 nm was evident, compared to the untreated control.

K. pneumoniae 1287 = experiment: Combination with antibiotics, modified checkerboard titration; type: cell-based, Klebsiella pneumoniae
Experimental: as §1
Lipopeptides and antibiotics combinations were assessed using a modified version of the checkerboard titration method: Antibiotics MIC was determined in LB medium containing sub-inhibitory lipopeptide concentrations. The sensitization factor (SF)[46] was then calculated by SF = MICA/MICC, where “MICA” is the antibiotic MIC in absence of an adjuvant and “MICC “ is the antibiotic MIC in presence of an adjuvant, for a specified adjuvant concentration. Combinations were classified as synergistic when antibiotics MIC were decreased by > 4 folds. Alternatively, the fractional inhibitory concentration index (FICI) was calculated by FICI = MICC1/MICA1 + MICC2/MICA2, where “MICC1” and “MICC2” respectively specify the antibiotic and the adjuvant MIC values upon their combination, whereas “MICA1” and “MICA2” respectively specify the antibiotic and the adjuvant MIC values when tested individually. Combinations were classified as synergistic for FICI < 0.5.

[1] = Binding to lipopolysaccharide, displacement of mono-dansylated polymyxin B; set-up: species or system E. coli; settings: 2 µM DPMB, 3 µg/ml LPS, 1.5 h, compared with PMB; two independent experiments
Experimental: Affinity to lipopolysaccharide (LPS) was assessed using fluorescent measurements of displaced mono-dansylated polymyxin B (DPMB)[68]. 180 µl of 5 mM HEPES containing 2 µM DPMB and 3 µg/ml LPS (from E. coli) were dispensed into black microtiter plates and mixed with 20 µl of HEPES containing serial twofold dilutions of lipopeptides. Plates were incubated in the dark for 1.5 h at room-temperature and fluorescence (excitation: 340 nm; emission: 485 nm) was recorded immediately thereafter (BioTek Instruments Synergy HT; Winooski, VT, USA).

E. coli 25922 = experiment: Cytoplasmic membrane depolarization, DiSC3(5) fluorescence; type: cell-based, Escherichia coli; settings: C10BBc12B up to 10 µM; PMB 2.5 µM
Experimental: Lipopeptides aptitude to depolarize the CM was evaluated using fluorescent measurements of the transmembrane potential sensitive dye 3,3′-Dipropylthiadicarbocyanine iodide (DiSC3(5))[69]. Bacteria (O.D.600 nm = 0.1) were washed by centrifugation at 10,000 RCF for 5 min, supernatant aspiration, and pellet resuspension in 5 mM HEPES containing 20 mM glucose, 50 mM KCl and 0.2 mM EDTA (pH = 7.2). This suspension was mixed with DiSC3(5) (400 µM in DMSO) to reach a final DiSC3(5) concentration of 4 µM and was incubated in the dark for 1 h at 37 °C with shaking. Then, 180 µl of this mixture were dispensed into black microtiter plates and fluorescence was recorded (excitation: 622 nm; emission: 670 nm) at 37 °C with shaking until baseline stabilization (BioTek Instruments Synergy HT; Winooski, VT, USA). Finally, 20 µl of HEPES containing serial twofold dilutions of lipopeptides were added and fluorescence was recorded for up to 30 min at the same conditions.

In the case of `CCCCCCCCCC(=O)N[C@@H](CCN)C(=O)N[C@@H](CCN)C(=O)NCCCCCCCCCCCC(=O)N[C@@H](CCN)C(N)=O` [C10BBc12B, decanoyl-bis.diaminobutyrate-aminododecanoyl-diaminobutyrate-amide] (Decanoyl-[Dab][Dab][12Ado][Dab]-NH2), the “MIC P. aeruginosa (n=3)” value (P. aeruginosa) is reported as at least 50 µM, the “sensitization efficiency to rifampin” value (K. pneumoniae 1287) is reported as 130,000 folds and the “displacement of LPS-bound DPMB” value [1] is reported as “inferior ability”. The “CM depolarization (trans-membrane potential)” value (E. coli 25922) was “unable to affect the trans-membrane potential”.
